Experimental data from PubChem BioAssay AID330 (DTP/NCI, 2004).
Several values for one entry are separate records, joined by “and”; a condition that tells them apart may be missing. Equal entries are not always repeated. Inconclusive results and toxic doses are left out.

Tested on: P388 leukemia ip, CD2F1 mice, survival T/C
Assay: NCI In Vivo Anticancer Drug Screen. Data for tumor model P388 Leukemia (intraperitoneal) in CD2F1 (CDF1) mice
Conditions: endpoint: median survival time, higher = longer survival
Summary of the method: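 Mice carrying the transplanted tumor received test compound or vehicle. Survival was recorded in each group, and the value is the treated-group measurement divided by that of the vehicle-treated control group.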

[1] = dose: 60.0 mg/kg/injection, schedule: Q01DX005 (ip), vehicle: saline with Tween-80
[2] = dose: 120.0 mg/kg/injection, schedule: Q01DX005 (ip), vehicle: saline with Tween-80
[3] = dose: 240.0 mg/kg/injection, schedule: Q01DX005 (ip), vehicle: saline with Tween-80
[4] = dose: 50.0 mg/kg/injection, schedule: Q01DX009 (ip), vehicle: saline
[5] = dose: 50.0 mg/kg/injection, schedule: Q01DX005 (ip), vehicle: Klucel (hydroxypropylcellulose) (HPC)
[6] = dose: 100.0 mg/kg/injection, schedule: Q01DX005 (ip), vehicle: Klucel (hydroxypropylcellulose) (HPC)
[7] = dose: 200.0 mg/kg/injection, schedule: Q01DX005 (ip), vehicle: Klucel (hydroxypropylcellulose) (HPC)
[8] = dose: 100.0 mg/kg/injection, schedule: Q04DX003 (ip), vehicle: saline with Tween-80
[9] = dose: 200.0 mg/kg/injection, schedule: Q04DX003 (ip), vehicle: saline with Tween-80
[10] = dose: 6.25 mg/kg/injection, schedule: Q01DX009 (ip), vehicle: saline with Tween-80
[11] = dose: 12.5 mg/kg/injection, schedule: Q01DX009 (ip), vehicle: saline with Tween-80
[12] = dose: 60.0 mg/kg/injection, schedule: Q01DX005 (ip), vehicle: Klucel (hydroxypropylcellulose) (HPC)
[13] = dose: 120.0 mg/kg/injection, schedule: Q01DX005 (ip), vehicle: Klucel (hydroxypropylcellulose) (HPC)
[14] = dose: 240.0 mg/kg/injection, schedule: Q01DX005 (ip), vehicle: Klucel (hydroxypropylcellulose) (HPC)
[15] = dose: 25.0 mg/kg/injection, schedule: Q01DX005 (ip), vehicle: Klucel (hydroxypropylcellulose) (HPC)
[16] = dose: 100.0 mg/kg/injection, schedule: Q01DX009 (ip), vehicle: saline with Tween-80

Cc1ccc2c(c1)C(=Nc1ccc(Cl)cc1)C(=O)N2
T/C (dose: 0.93 mg/kg/injection, schedule: Q01DX005 (ip), vehicle: saline with Tween-80): 101 % of control | T/C (dose: 1.87 mg/kg/injection, schedule: Q01DX005 (ip), vehicle: saline with Tween-80): 93 % of control | T/C (dose: 3.75 mg/kg/injection, schedule: Q01DX005 (ip), vehicle: saline with Tween-80): 87 % of control | T/C (dose: 15.0 mg/kg/injection, schedule: Q01DX005 (ip), vehicle: saline with Tween-80): 87 % of control | T/C [1]: 99 % of control | T/C [2]: 87 % of control | T/C [3]: 95 % of control

c1cc2ccc3ccc(C4CO4)c4ccc(c1)c2c34 (configuration not stated)
T/C (dose: 6.25 mg/kg/injection, schedule: Q01DX009 (ip), vehicle: Klucel (hydroxypropylcellulose) (HPC)): 99 % of control | T/C (dose: 12.5 mg/kg/injection, schedule: Q01DX009 (ip), vehicle: Klucel (hydroxypropylcellulose) (HPC)): 103 % of control | T/C (dose: 25.0 mg/kg/injection, schedule: Q01DX009 (ip), vehicle: Klucel (hydroxypropylcellulose) (HPC)): 101 % of control

c1ccc(C(Sc2ncnc3nc[nH]c23)c2ccccc2)cc1
T/C [4]: 102 % of control | T/C (dose: 100.0 mg/kg/injection, schedule: Q01DX009 (ip), vehicle: saline): 102 % of control | T/C (dose: 200.0 mg/kg/injection, schedule: Q01DX009 (ip), vehicle: saline): 111 % of control

COc1cc(C[C@@H]([C@@H](CO)Cc2ccc3c(c2)OCO3)[C@H](O)CO)cc(OC)c1OC
T/C (dose: 6.25 mg/kg/injection, schedule: Q04DX002 (ip), vehicle: acetone): 103 % of control | T/C (dose: 12.5 mg/kg/injection, schedule: Q04DX002 (ip), vehicle: acetone): 100 % of control | T/C (dose: 25.0 mg/kg/injection, schedule: Q04DX002 (ip), vehicle: acetone): 100 % of control

C/C=C/C=C\C=C/C(O)CC(OP(=O)(O)O)C(C)(O)/C=C/C1CC=CC(=O)O1 (configuration not stated)
T/C (dose: 0.75 mg/kg/injection, schedule: Q01DX005 (ip), vehicle: water): 116 % of control | T/C (dose: 1.5 mg/kg/injection, schedule: Q01DX005 (ip), vehicle: water): 119 % of control | T/C (dose: 6.25 mg/kg/injection, schedule: Q01DX005 (ip), vehicle: water): 183 % of control

O=C1C(O)=C(c2ccccc2)C12CSC1(CS2)C(=O)C(O)=C1c1ccccc1 (configuration not stated)
T/C [1]: 100 % of control | T/C [2]: 94 % of control | T/C [3]: 91 % of control

CCCCCCC[As](C)(=O)O
T/C (dose: 12.5 mg/kg/injection, schedule: Q01DX001 (ip), vehicle: Klucel (hydroxypropylcellulose) (HPC)): 104 % of control | T/C (dose: 25.0 mg/kg/injection, schedule: Q01DX001 (ip), vehicle: Klucel (hydroxypropylcellulose) (HPC)): 111 % of control | T/C (dose: 400.0 mg/kg/injection, schedule: Q01DX001 (ip), vehicle: Klucel (hydroxypropylcellulose) (HPC)): 96 % of control

CN(Cc1ccc(Nc2ccccc2)cc1)C1CCCCC1
T/C (dose: 50.0 mg/kg/injection, schedule: Q01DX009 (ip), vehicle: saline + Tween-80 + alcohol): 103 % of control and 106 % of control | T/C (dose: 100.0 mg/kg/injection, schedule: Q01DX009 (ip), vehicle: saline + Tween-80 + alcohol): 110 % of control and 111 % of control | T/C (dose: 200.0 mg/kg/injection, schedule: Q01DX009 (ip), vehicle: saline + Tween-80 + alcohol): 109 % of control and 112 % of control | T/C (dose: 400.0 mg/kg/injection, schedule: Q01DX009 (ip), vehicle: saline + Tween-80 + alcohol): 114 % of control

Cc1ccc(C23c4ccccc4CCN2C(=O)C3N)cc1 (configuration not stated)
T/C [5]: 99 % of control | T/C [6]: 106 % of control | T/C [7]: 93 % of control

COC1=C(C)C2CC(=O)OC3C(O)C4C(C)CC(O)C(=O)C4(C)C(C1=O)C23C (configuration not stated)
T/C (dose: 3.0 mg/kg/injection, schedule: Q01DX009 (ip), vehicle: alcohol): 105 % of control | T/C (dose: 6.0 mg/kg/injection, schedule: Q01DX009 (ip), vehicle: alcohol): 104 % of control | T/C (dose: 12.0 mg/kg/injection, schedule: Q01DX009 (ip), vehicle: alcohol): 107 % of control

O=C1OC2(CCCCC2)OC(=O)C1=Cc1ccc([N+](=O)[O-])s1
T/C [8]: 114 % of control | T/C [9]: 105 % of control

Cc1cc(C)c(C#N)c(NN)n1
T/C (dose: 6.25 mg/kg/injection, schedule: Q01DX005 (ip), vehicle: saline with Tween-80): 99 % of control | T/C (dose: 12.5 mg/kg/injection, schedule: Q01DX005 (ip), vehicle: saline with Tween-80): 103 % of control

Fc1cccc(Cl)c1CSC(=S)N1CCSCC1
T/C [1]: 110 % of control | T/C [2]: 105 % of control | T/C [3]: 96 % of control

O=C(CCSSCCC(=O)ON1C(=O)CCC1=O)ON1C(=O)CCC1=O
T/C [10]: 100 % of control | T/C [11]: 105 % of control | T/C (dose: 25.0 mg/kg/injection, schedule: Q01DX009 (ip), vehicle: saline with Tween-80): 112 % of control

COc1cc2c(cc1Cc1cc(OC)c(OC)c(OC)c1)OCO2
T/C [12]: 98 % of control | T/C [13]: 100 % of control | T/C [14]: 98 % of control

Cc1cc[n+](C)c(Cc2ccccc2)c1C
T/C (dose: 12.5 mg/kg/injection, schedule: Q01DX005 (ip), vehicle: Klucel (hydroxypropylcellulose) (HPC)): 97 % of control | T/C [15]: 100 % of control | T/C [5]: 112 % of control

S=c1nc(-c2nc(=S)[nH]c3c2CCCCC3)c2c([nH]1)CCCCC2
T/C [12]: 97 % of control | T/C [13]: 96 % of control | T/C [14]: 92 % of control

COc1cc(NCC(C)(O)CN(CC(C)C)CC(C)C)c2ncccc2c1 (configuration not stated)
T/C (dose: 12.5 mg/kg/injection, schedule: Q01DX005 (ip), vehicle: saline): 106 % of control | T/C (dose: 25.0 mg/kg/injection, schedule: Q01DX005 (ip), vehicle: saline): 106 % of control | T/C (dose: 50.0 mg/kg/injection, schedule: Q01DX005 (ip), vehicle: saline): 112 % of control and 97 % of control

CN(CCO)c1cnn(CCO)c(=O)c1Cl
T/C (dose: 60.0 mg/kg/injection, schedule: Q01DX005 (ip), vehicle: saline): 102 % of control | T/C (dose: 120.0 mg/kg/injection, schedule: Q01DX005 (ip), vehicle: saline): 105 % of control | T/C (dose: 240.0 mg/kg/injection, schedule: Q01DX005 (ip), vehicle: saline): 102 % of control

COc1ccc(/C(=C/c2c(C(=O)O)oc3ccccc23)c2ccccc2)cc1
T/C (dose: 100.0 mg/kg/injection, schedule: Q01DX001 (ip), vehicle: saline with Tween-80): 97 % of control | T/C (dose: 200.0 mg/kg/injection, schedule: Q01DX001 (ip), vehicle: saline with Tween-80): 99 % of control

COc1cc2ccc3c(c2cc1OC)C=[N+](C)CC3
T/C (dose: 44.0 mg/kg/injection, schedule: Q01DX009 (ip), vehicle: saline with Tween-80): 100 % of control | T/C (dose: 66.0 mg/kg/injection, schedule: Q01DX009 (ip), vehicle: saline with Tween-80): 109 % of control | T/C [16]: 109 % of control | T/C (dose: 150.0 mg/kg/injection, schedule: Q01DX009 (ip), vehicle: saline with Tween-80): 113 % of control

CC1(C)OC2(C)CCC1C1C2N1C(=O)C(c1ccccc1)c1ccccc1 (configuration not stated)
T/C [5]: 109 % of control | T/C [6]: 100 % of control | T/C [7]: 109 % of control

Cc1cc2nnn(-c3ncccc3[N+](=O)[O-])c2cc1C
T/C [1]: 104 % of control | T/C [2]: 101 % of control | T/C [3]: 101 % of control

CC1=C(/C=C/C(C)=N/NC(N)=S)C(C)(C)CCC1
T/C [10]: 100 % of control | T/C [11]: 115 % of control

c1ccc(CCn2c(-c3ccccn3)nc3ccccc32)nc1
T/C [15]: 105 % of control | T/C [5]: 99 % of control | T/C [6]: 99 % of control

COc1ccc2c(c1)C(=O)CC(COS(=O)(=O)c1ccc(C)cc1)C2 (configuration not stated)
T/C (dose: 50.0 mg/kg/injection, schedule: Q01DX009 (ip), vehicle: saline with Tween-80): 107 % of control | T/C [16]: 101 % of control | T/C (dose: 200.0 mg/kg/injection, schedule: Q01DX009 (ip), vehicle: saline with Tween-80): 99 % of control

Cn1c[n+](C)nn1
T/C (dose: 12.5 mg/kg/injection, schedule: Q01DX009 (ip), vehicle: saline): 91 % of control | T/C (dose: 25.0 mg/kg/injection, schedule: Q01DX009 (ip), vehicle: saline): 97 % of control | T/C [4]: 97 % of control

CC(C)c1cccc(C(C)C)c1Oc1ccc([N+](=O)[O-])cc1[N+](=O)[O-]
T/C (dose: 50.0 mg/kg/injection, schedule: Q04DX003 (ip), vehicle: saline with Tween-80): 94 % of control | T/C [8]: 93 % of control | T/C [9]: 92 % of control | T/C (dose: 400.0 mg/kg/injection, schedule: Q04DX003 (ip), vehicle: saline with Tween-80): 90 % of control
